Assay results published in patent US9216968B2, “Heterocyclic derivative and pharmaceutical drug” (NIPPON SHINYAKU CO., LTD., priority 2011, dated 2015).
Structures can show the parent of a compound that is named as a salt.

What was measured:
[1] = biological target: human mPGES-1 (Homo sapiens (Human), UniProt O14684); test: mPGES-1 inhibiting activity (microsome fractions, PGE2 by HTRF); format: biochemical; settings: microsomes from CHO-K1 cells transfected with human mPGES-1; PGH2 1 μM, 4° C., 60 seconds; read-out: mPGES-1 Inhibition IC50
Method in brief: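 PGE2 formation read by HTRF after 60 s at 4 °C with 1 μM PGH2 substrate, following 20 min compound preincubation (1% DMSO) with human mPGES-1 microsomes from transfected CHO-K1 cells. Buffer: potassium phosphate, reduced glutathione, pH 7.4; IC50 from activity relative to enzyme-free blank.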

[2] = tested on: A549 cells; test: Inhibition of PGE2 production in A549 cell (IL-1β stimulated); format: cell-based, human; settings: Homo sapiens, A549, 24 h, IL-1β 5 ng/well, PGE2 in culture medium
Method in brief: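 A549 cells preincubated 60 min with compound in RPMI/3% FBS (final DMSO 0.10), then stimulated with IL-1β (5 ng/well) for 24 h at 37 °C. PGE2 measured by HTRF and PGF2α by EIA in medium; IC50 from inhibition relative to stimulated minus unstimulated production.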

Chain of human mPGES-1 (O14684 whole entry): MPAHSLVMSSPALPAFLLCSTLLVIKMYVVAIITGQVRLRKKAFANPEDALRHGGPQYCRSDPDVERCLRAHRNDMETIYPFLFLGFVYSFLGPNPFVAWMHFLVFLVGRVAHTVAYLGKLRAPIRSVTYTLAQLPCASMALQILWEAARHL

IC50 [1]	IC50 [2]	SMILES
3.6 nM	6.2 nM	Cc1ccc(NC(=O)c2cc(NC(=O)c3cc(Cl)ccc3Cl)cc3[nH]c(N(C)C)nc23)cc1Cl [Example 207, N-(3-Chloro-4-methylphenyl)-6-{[(2,5-dichlorophenyl)carbonyl]amino}-2-(dimethylamino)-1H-benzimidazole-4-carboxamide hydrochloride]
0.7 nM	13 nM	Cc1c(Cl)cccc1NC(=O)c1cc(NC(=O)c2cc(Cl)ccc2Cl)cc2[nH]c(C3CC3)nc12 [Example 208, N-(3-Chloro-2-methylphenyl)-2-cyclopropyl-6-{[(2,5-dichlorophenyl)carbonyl]amino}-1H-benzimidazole-4-carboxamide hydrochloride]
1 nM	10.3 nM	Cc1ccc(NC(=O)c2cc(NC(=O)c3cc(Cl)ccc3Cl)cc3[nH]c(C4CC4)nc23)cc1Cl [Example 209, N-(3-Chloro-4-methylphenyl)-2-cyclopropyl-6-{[(2,5-dichlorophenyl)carbonyl]amino}-1H-benzimidazole-4-carboxamide hydrochloride]
4.7 nM	13.8 nM	Cc1c(Cl)cccc1NC(=O)c1cc(NC(=O)c2cc(Cl)ccc2Cl)cc2[nH]c(C3(C)CC3)nc12 [Example 210, N-(3-Chloro-2-methylphenyl)-6-{[(2,5-dichlorophenyl)carbonyl]amino}-2-(1-methylcyclopropyl)-1H-benzimidazole-4-carboxamide hydrochloride]
2.5 nM	8.5 nM	Cc1ccc(NC(=O)c2cc(NC(=O)c3cc(Cl)ccc3Cl)cc3[nH]c(C4(C)CC4)nc23)cc1Cl [Example 211, N-(3-Chloro-4-methylphenyl)-6-{[(2,5-dichlorophenyl)carbonyl]amino}-2-(1-methylcyclopropyl)-1H-benzimidazole-4-carboxamide hydrochloride]
42.3 nM	305 nM	COCc1nc2c(C(=O)Nc3cccc(Cl)c3C)cc(NC(=O)c3ccccc3S(C)(=O)=O)cc2[nH]1 [Example 212, N-(3-Chloro-2-methylphenyl)-2-(methoxymethyl)-6-({[2-(methylsulfonyl)phenyl]carbonyl}amino)-1H-benzimidazole-4-carboxamide]
0.9 nM	142 nM	COCCc1nc2c(C(=O)Nc3ccc(C)c(Cl)c3)cc(NC(=O)c3cc(Cl)ccc3Cl)cc2[nH]1 [Example 213, N-(3-Chloro-4-methylphenyl)-6-{[(2,5-dichlorophenyl)carbonyl]amino}-2-(2-methoxyethyl)-1H-benzimidazole-4-carboxamide hydrochloride]
5.2 nM	60.7 nM	COCc1nc2c(C(=O)Nc3ccccc3)cc(NC(=O)c3ccccc3C(F)(F)F)cc2[nH]1 [Example 214, 2-(Methoxymethyl)-N-phenyl-6-({[2-(trifluoromethyl)phenyl]carbonyl}amino)-1H-benzimidazole-4-carboxamide hydrochloride]
140 nM	772 nM	CCCNC(=O)c1cc(NC(=O)c2ccccc2C(F)(F)F)cc2[nH]c(COC)nc12 [Example 215, 2-(Methoxymethyl)-N-propyl-6-({[2-(trifluoromethyl)phenyl]carbonyl}amino)-1H-benzimidazole-4-carboxamide hydrochloride]
26.9 nM	317 nM	COCc1nc2c(C(=O)NCc3ccccc3)cc(NC(=O)c3ccccc3C(F)(F)F)cc2[nH]1 [Example 217, N-Benzyl-2-(methoxymethyl)-6-({[2-(trifluoromethyl)phenyl]carbonyl}amino)-1H-benzimidazole-4-carboxamide hydrochloride]
5.3 nM	42.8 nM	COCc1nc2c(C(=O)NCC3CCCCC3)cc(NC(=O)c3ccccc3C(F)(F)F)cc2[nH]1 [Example 218, N-(Cyclohexylmethyl)-2-(methoxymethyl)-6-({[2-(trifluoromethyl)phenyl]carbonyl}amino)-1H-benzimidazole-4-carboxamide hydrochloride]
2 nM	26 nM	COCc1nc2c(C(=O)Nc3cccc4ccccc34)cc(NC(=O)c3ccccc3C(F)(F)F)cc2[nH]1 [Example 219, 2-(Methoxymethyl)-N-(naphthalen-1-yl)-6-({[2-(trifluoromethyl)phenyl]carbonyl}amino)-1H-benzimidazole-4-carboxamide hydrochloride]
2.3 nM	39 nM	COCc1nc2c(C(=O)Nc3ccccc3Cc3ccccc3)cc(NC(=O)c3ccccc3C(F)(F)F)cc2[nH]1 [Example 229, N-(2-Benzylphenyl)-2-(methoxymethyl)-6-({[2-(trifluoromethyl)phenyl]carbonyl}amino)-1H-benzimidazole-4-carboxamide hydrochloride]
1.9 nM	100 nM	COCc1nc2c(C(=O)Nc3cccc4cccnc34)cc(NC(=O)c3ccccc3C(F)(F)F)cc2[nH]1 [Example 230, 2-(Methoxymethyl)-N-(quinolin-8-yl)-6-({[2-(trifluoromethyl)phenyl]carbonyl}amino)-1H-benzimidazole-4-carboxamide hydrochloride]
1.9 nM	150 nM	COCc1nc2c(C(=O)NCC3CCCCCC3)cc(NC(=O)c3ccccc3C(F)(F)F)cc2[nH]1 [Example 231, N-(Cycloheptylmethyl)-2-(methoxymethyl)-6-({[2-(trifluoromethyl)phenyl]carbonyl}amino)-1H-benzimidazole-4-carboxamide hydrochloride]
7.7 nM	125 nM	COCc1nc2c(C(=O)Nc3nc4ccccc4o3)cc(NC(=O)c3ccccc3C(F)(F)F)cc2[nH]1 [Example 232, N-(1,3-Benzoxazol-2-yl)-2-(methoxymethyl)-6-({[2-(trifluoromethyl)phenyl]carbonyl}amino)-1H-benzimidazole-4-carboxamide hydrochloride]
2.5 nM	195 nM	COCc1nc2c(C(=O)Nc3nc4ccc(Cl)cc4o3)cc(NC(=O)c3ccccc3C(F)(F)F)cc2[nH]1 [Example 233, N-(6-Chloro-1,3-benzoxazol-2-yl)-2-(methoxymethyl)-6-({[2-(trifluoromethyl)phenyl]carbonyl}amino)-1H-benzimidazole-4-carboxamide hydrochloride]
97.4 nM	198 nM	COCc1nc2c(C(=O)Nc3cccc(Cl)c3CO)cc(NC(=O)c3ccccc3C(F)(F)F)cc2[nH]1 [Example 234, N-[3-Chloro-2-(hydroxymethyl)phenyl]-2-(methoxymethyl)-6-({[2-(trifluoromethyl)phenyl]carbonyl}amino)-1H-benzimidazole-4-carboxamide]
56.2 nM	104 nM	COCc1nc2c(C(=O)Nc3cccc(Cl)c3C)cc(NC(=O)c3ncccc3F)cc2[nH]1 [Example 244, N-(3-Chloro-2-methylphenyl)-6-{[(3-fluoropyridin-2-yl)carbonyl]amino}-2-(methoxymethyl)-1H-benzimidazole-4-carboxamide hydrochloride]
25.7 nM	166 nM	COCc1nc2c(C(=O)Nc3cccc(Cl)c3C)cc(NC(=O)c3ccncc3Cl)cc2[nH]1 [Example 245, N-(3-Chloro-2-methylphenyl)-6-{[(3-chloropyridin-4-yl)carbonyl]amino}-2-(methoxymethyl)-1H-benzimidazole-4-carboxamide hydrochloride]
35.9 nM	132 nM	COCc1nc2c(C(=O)Nc3cccc(Cl)c3C)cc(NC(=O)c3c(Cl)cncc3Cl)cc2[nH]1 [Example 246, N-(3-Chloro-2-methylphenyl)-6-{[(3,5-dichloropyridin-4-yl)carbonyl]amino}-2-(methoxymethyl)-1H-benzimidazole-4-carboxamide hydrochloride]

SMILES	IC50 [1]	IC50 [2]
CCCCOc1ccc(Cl)c(C(=O)Nc2cc(C(=O)Nc3cccc(Cl)c3C)c3nc(COC)[nH]c3c2)c1 [Example 247, 6-{[(5-Butoxy-2-chlorophenyl)carbonyl]amino}-N-(3-chloro-2-methylphenyl)-2-(methoxymethyl)-1H-benzimidazole-4-carboxamide hydrochloride]	68.4 nM	55 nM
